Results published in US7468150B2, “Synthesis of conducto-magnetic polymers as nano-transducers in biosensor design” (Board of Trustees of Michigan State University, priority 2005, dated 2008).
In brackets after ≈: the same amount, converted by molar mass.

Legend:
Type in all cases: physicochemical
[1] = Conductivities of polymers and nanocomposites in solution (Acorn TDS 5 Meter); settings: solvent as given in the compound name
Procedure: In order to characterize […] and related compounds, several methods were utilized. First, the DC SQUID (Superconducting Quantum Interference Device) magnetometer was used to measure magnetization of solid […] after 3 weeks and the […] base (control). Absorbance checks using spectrophotometer were performed on […] in solution. Conductivities in solution of […] were gauged by Acorn® TDS 5 Meter. […] To create β-carotene nanocomposites, the use of an appropriate solvent was crucial. […] Solutions of β-carotene nanocomposites were characterized by absorbance checks and conductivity measurements. […] Mixtures of β-carotene […] various other PANi-derived polymers are attained forming a variety of other composites.

[2] = Degradability of β-carotene in toluene by absorbance over time; settings: absorbance graphs over several days
Procedure: (§1) β-carotene nanocomposites: To create β-carotene nanocomposites, the use of an appropriate solvent was crucial. Acetone, toluene, kwik-dri, and tetrahydrofuran (THF) were tested. The solubility of β-carotene in kwik-dri, a non-aromatic industrial solvent similar to toluene, was crudely determined. Solutions of β-carotene nanocomposites were characterized by absorbance checks and conductivity measurements. […] Mixtures of β-carotene with PANi emeraldine salt and various other PANi-derived polymers are attained forming a variety of other composites.

[3] = Solubility of β-carotene in kwik-dri; settings: crudely determined
Procedure: as §1

**Q.** Which results are given for `CC1=C(/C=C/C(C)=C/C=C/C(C)=C/C=C/C=C(C)/C=C/C=C(C)/C=C/C2=C(C)CCCC2(C)C)C(C)(C)CCC1` [β-carotene]?
**A.** Conductivity [1]: ~0 μS; Conductivity ([1]; listed as Kwik-dri + β-carotene): 0.15 μS; Conductivity ([1]; listed as THF + β-carotene): ~0 μS; Degradability [2]: degradability in toluene was demonstrated; Solubility [3]: 500 µg/mL (≈ 931 µM)
